Tests used:
[1] = system: human sebocytes (Hs 917.T, ATCC line No. CRL-7669); experiment: Sebocyte viability (MTT exclusion test); format: cell-based; details: chrysin concentrations of 10^−3% and 5×10^−3%; compared with conventional culture medium
Procedure: A line of human sebocytes (Hs 917.T, ATCC line No. CRL-7669) was cultured in Dulbecco's modified Eagle's medium with 4.5 g/l of D-glucose and 10% of fetal calf serum. These adherent cells have a polygonal morphology and large nuclei. Firstly, we verified the viability (MTT exclusion test) of the sebocytes in the presence of chrysin at various concentrations, in comparison with their conventional culture medium.

[2] = system: human sebocytes (Hs 917.T, ATCC line No. CRL-7669); experiment: Sebocyte proliferation, M.T.T. colorimetric test; format: cell-based; details: 72 hours of culture, versus reference medium
Procedure: A line of human sebocytes (Hs 917.T, ATCC line No. CRL-7669) was cultured in Dulbecco's modified Eagle's medium with 4.5 g/l of D-glucose and 10% of fetal calf serum. These adherent cells have a polygonal morphology and large nuclei.
Proliferation was evaluated by means of a validated colorimetric test, the M.T.T. test (dimethyl thiazolyl diphenyl tetrazolium) (according to Mosmann, J. Immunol. Meth. 1983 65: 55-63). This compound is metabolized by the mitochondria, to give blue formazan crystals, the amount of which depends directly on the activity of the mitochondrial succinate dehydrogenase enzyme and on the number of living cells.
As a result of this, the proliferation is measured by colorimetery (570 nm).
The proliferation was therefore evaluated according to the following conditions: • sebocytes in reference medium; • sebocytes cultured in the presence of the reference medium supplemented with chrysin at the 2 concentrations of 10^−3% and 5×10^−3%.
For each condition performed in sextuplet, the proliferation was analyzed after 72 hours of culture.

O=c1cc(-c2ccccc2)oc2cc(O)cc(O)c12 [chrysin, 5,7-dihydroxyflavone]
cytotoxicity on sebocytes (viability) [1]: did not induce any cytotoxicity
difference in proliferation of human sebocytes in culture ([2]; chrysin concentration 5×10^−3%): −18.4%
difference in proliferation of human sebocytes in culture ([2]; chrysin concentration 10^−3%): −10.5%
